Experimental data: PubChem BioAssay (NCI)
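48-hour exposure; five concentrations; linearly interpolated endpoints. The concentration for 50% growth inhibition is given as GI50. TGI denotes the concentration required for complete inhibition of growth.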

Columns and labels:
Test in all cases: NCI tumour cell line growth inhibition, 48 h
[1] = system: HOP-18 NSCLC
[2] = system: KM20L2 colon
[3] = system: LXFL 529 NSCLC
[4] = system: M19-MEL melanoma
[5] = system: XF 498 CNS
[6] = system: DLD-1 colon
[7] = system: P388 leukemia
[8] = system: P388/ADR leukemia
[9] = system: SN12K1 renal
[10] = system: SNB-78 CNS
[11] = system: RXF-631 renal

Compound | TGI [1] | TGI [2] | TGI [3] | TGI [4] | TGI [5] | TGI [6] | TGI [7] | TGI [8] | TGI [9] | TGI [10] | TGI [11] | GI50 [3]
COc1ccc2c(c1OC)C(=O)C2 | > 100 µM | > 100 µM | > 100 µM | > 100 µM | > 100 µM |  |  |  |  |  |  | 
COc1ccc2[nH]c3ccc4cc[n+](CCN5CCC(C6CCN(CC[n+]7ccc8ccc9[nH]c%10ccc(OC)cc%10c9c8c7)CC6)CC5)cc4c3c2c1 | 15.1 µM | > 100 µM |  | 16.1 µM | > 75.9 µM | > 100 µM | > 100 µM | > 100 µM | > 52 µM | 66.4 µM |  | 
COc1cc(/C=C/c2ccc(OC)c(OC)c2)oc(=O)c1 | > 250 µM | > 250 µM |  | > 250 µM | > 250 µM | > 250 µM | > 250 µM | > 250 µM | > 250 µM | > 250 µM |  | 
CC1[C@@]2(O[C@@H]3C=C4C5CCC6Cc7nc8c(nc7C[C@@]6(C)C5C[C@H](O)[C@@]4(C)[C@]13O)CC1CCc3c(cc4c5c3C(O)C[C@H]5[C@@H](C)C3(O4)OC(C)(C)CC3O)[C@]1(C)C8)O[C@@](C)(CO)C[C@@H]2O (some centres undefined) | > 3.72 µM | > 3.72 µM |  | > 3.72 µM | 0.248 µM | > 3.72 µM | > 3.72 µM | > 3.72 µM | 0.937 µM | 2.33 µM |  | 
O=[N+]([O-])c1ccc(C[P+]2(c3ccccc3)CCCCC2)cc1 (tested in a mixture with another compound) | 65.8 µM |  | > 100 µM |  | > 100 µM | > 100 µM |  |  |  |  | > 100 µM | 
COc1ccc(-c2cc(=O)c3c(O)c(O)c(OC)cc3o2)cc1O | > 100 µM | > 100 µM | > 100 µM | > 100 µM | > 100 µM | > 100 µM |  |  |  |  | > 100 µM | 
COc1ccccc1/C=C1\C(=O)N(C(=O)Cc2ccccc2)N=C1C | > 100 µM |  |  | > 100 µM | > 100 µM | > 100 µM |  |  |  | > 100 µM |  | 
Cc1ccc(C(=O)Nc2ccc(S(=O)(=O)O)c3cc(S(=O)(=O)O)cc(S(=O)(=O)O)c23)cc1NC(=O)c1cccc(NC(=O)Nc2cccc(C(=O)Nc3cc(C(=O)Nc4ccc(S(=O)(=O)O)c5cc(S(=O)(=O)O)cc(S(=O)(=O)O)c45)ccc3C)c2)c1 | > 93.3 µM | > 100 µM | > 100 µM | > 100 µM | 90.5 µM | > 100 µM |  |  |  | > 100 µM |  | 
CCC1(CC)C(=O)NC(=O)NC1=S | > 100 µM | > 100 µM | > 100 µM | > 100 µM |  | > 100 µM |  |  |  | > 100 µM |  | 
CCC1(O)C(=O)OCc2c1cc1n(c2=O)Cc2cc3cc4c(cc3nc2-1)OCO4 (centres undefined) | 0.824 µM | 0.738 µM | 2.27 µM | 0.205 µM | 0.225 µM | > 60.3 µM | 0.117 µM | < 0.0172 µM | 0.331 µM | > 57.8 µM | 1.13 µM | 0.128 µM
ClCCCN1CCN(CCCl)CC1 | > 1000 µM | > 1000 µM |  | 773 µM | 147 µM | 319 µM | > 840 µM | > 529 µM | 575 µM | > 567 µM |  | 
Nc1nnc(N)n1N |  |  | > 100 µM | > 100 µM | > 100 µM | > 100 µM |  |  |  | > 100 µM | > 100 µM | 
